Here are results for 19 compounds from US7799781B2, “5,6,7,8-tetrahydropteridine derivatives as HSP90 inhibitors” (AstraZeneca AB, priority 2007, dated 2010).

The target of this assay is T1, HSP90α (Homo sapiens, UniProt P07900).
T1 construct: 6H is tagged HSP90α protein (amino acids 2-732) expressed in E. coli; 6His; made in house; host or cells: E. coli
Nature of the assay: Test (a) In Vitro Binding Assay (fluorescence polarisation, binding to the ATP pocket of HSP90α). As to conditions: FP probe displacement, geometric mean where tested more than once. How it is done: Test (a) In Vitro Binding Assay
Test (a) measures the ability of a compound to bind to the ATP pocket of HSP90α. 6H is tagged HSP90α protein (amino acids 2-732) expressed in E. coli was purified and stored at −80° C. in aliquots. Assay measurements were performed in assay buffer comprising 20 mM HEPES pH 7.4, 50 mM KCl, 20 mM NaHMoO4, 0.01% Nonidet P40, 2 mM DTT and 0.1 mg/ml BSA. Following resuspension in DMSO, the FP probe 3-[[5-(5-ethyl-2,4-dihydroxy-phenyl)-4-(4-methoxyphenyl)2H-pyrazole-3-carbonyl]amino]propyl-Cy3B-amide; 14-(2-{[3-({[3-(5-ethyl-2,4-dihydroxyphenyl)-4-(4-methoxyphenyl)-1H-pyrazol-5-yl]carbonyl}amino)propyl]amino}-2-oxoethyl)-16,16,18,18-tetramethyl-2-sulfo-6,7,7a,8a,9,10,16,18-octahydrobenzo[2″,3″]indolizino [8″,7″:5′,6′]pyrano[3′,2′:3,4]pyrido[1,2-a]indol-5-ium) was diluted to a final concentration of 5 nM in assay buffer. Test compounds were prepared by dilution in 100% DMSO to give the appropriate dose range and dispensed into a 384 well assay plate as a 6X concentrate. Upon addition of recombinant HSP90α to a final assay concentration of 1 μg/ml, FP probe was added and plates incubated at room temperature for 1 to 4 hours. Final DMSO concentration was 1% in a total assay volume of 18 μl. Fluorescence Polarisation measurements were made using a Tecan Ultra plate reader using an excitation wavelength of 530 nm and an emission wavelength of 590 nm. Millipolarisation (mP) values were estimated using Xfluor software.
The data in the above table was generated in an assay substantially as described above in relation to in-vitro Binding Assay (a). Some of the compounds shown in the table were tested more than once in the assay. For those compounds the IC50 value shown is the geometric mean of the measured IC50 values. Therefore, as will be understood, the IC50 values quoted above are not absolute and further measurements of the IC50 values may result in a different mean IC50 value.
By IC50 is commonly meant the point on the concentration scale where inhibition reaches its midpoint. The compound `COc1c(C)cnc(CN2c3nc(N)ncc3N(CCN3CCCC3)C(=O)[C@H]2C)c1C` [Example 11.11, (7R)-2-amino-8-[(4-methoxy-3,5-dimethylpyridin-2-yl)methyl]-7-methyl-5-(2-pyrrolidin-1-ylethyl)-7,8-dihydropteridin-6(5H)-one] yielded a half-maximal inhibitory concentration (IC50) of 6090 nM. `COc1c(C)cnc(CN2c3nc(N)ncc3N(CC(C)(C)N(C)C)C(=O)[C@H]2C)c1C` [Example 11.12, (7R)-2-amino-5-[2-(dimethylamino)-2-methylpropyl]-8-[(4-methoxy-3,5-dimethylpyridin-2-yl)methyl]-7-methyl-7,8-dihydropteridin-6(5H)-one] gave an IC50 of 16000 nM.

Regarding `COc1c(C)cnc(CN2c3nc(N)ncc3N(CCCN(C)C)C(=O)[C@H]2C)c1C` [Example 11.13, (7R)-2-amino-5-[3-(dimethylamino)propyl]-8-[(4-methoxy-3,5-dimethylpyridin-2-yl)methyl]-7-methyl-7,8-dihydropteridin-6(5H)-one], the 50% inhibitory concentration (IC50) stood at 4850 nM.

In turn, `COc1c(C)cnc(CN2c3nc(N)ncc3N(CCN3CCOCC3)C(=O)[C@H]2C)c1C` [Example 11.14, (7R)-2-amino-8-[(4-methoxy-3,5-dimethylpyridin-2-yl)methyl]-7-methyl-5-(2-morpholin-4-ylethyl)-7,8-dihydropteridin-6(5H)-one] returned a 50% inhibitory concentration (IC50) of 2400 nM.

Turning to `COc1c(C)cnc(CN2c3nc(N)ncc3N(CCc3ccncc3)C(=O)[C@H]2C)c1C` [Example 11.15, (7R)-2-amino-8-[(4-methoxy-3,5-dimethylpyridin-2-yl)methyl]-7-methyl-5-(2-pyridin-4-ylethyl)-7,8-dihydropteridin-6(5H)-one], the IC50 is 563 nM. For the compound `COc1c(C)cnc(CN2c3nc(N)ncc3N(CCc3cccnc3)C(=O)[C@H]2C)c1C` [Example 11.16, (7R)-2-amino-8-[(4-methoxy-3,5-dimethylpyridin-2-yl)methyl]-7-methyl-5-(2-pyridin-3-ylethyl)-7,8-dihydropteridin-6(5H)-one], the IC50 was determined as 542 nM. This IC50 and that of the compound before are within 1.5-fold of each other.

Turning to `COc1c(C)cnc(CN2c3nc(N)ncc3N(CCCc3cccnc3)C(=O)[C@H]2C)c1C` [Example 11.17, (7R)-2-amino-8-[(4-methoxy-3,5-dimethylpyridin-2-yl)methyl]-7-methyl-5-(3-pyridin-3-ylpropyl)-7,8-dihydropteridin-6(5H)-one], the IC50 came to 1480 nM. In turn, `COc1c(C)cnc(CN2CC(=O)N(CCc3cccnc3)c3c(Cl)nc(N)nc32)c1C` [Example 11.18, 2-amino-4-chloro-8-[(4-methoxy-3,5-dimethylpyridin-2-yl)methyl]-5-(2-pyridin-3-ylethyl)-7,8-dihydropteridin-6(5H)-one] registered an IC50 of 166 nM. Consider `CCCN1C(=O)CN(Cc2ncc(C)c(OC)c2C)c2nc(N)ncc21` [Example 11.19, 2-amino-8-[(4-methoxy-3,5-dimethylpyridin-2-yl)methyl]-5-propyl-7,8-dihydropteridin-6(5H)-one], for which the IC50 turned out to be 619 nM. This IC50 is about 3.7-fold higher than that of the compound before. `COc1c(C)cnc(CN2c3nc(N)ncc3N(CCN3CCNC3=O)C(=O)[C@H]2C)c1C` [Example 11.20, (7R)-2-amino-8-[(4-methoxy-3,5-dimethylpyridin-2-yl)methyl]-7-methyl-5-[2-(2-oxoimidazolidin-1-yl)ethyl]-7,8-dihydropteridin-6(5H)-one]: the half-inhibitory concentration (IC50) is 2680 nM.

The compound `COc1c(C)cnc(CN2c3nc(N)ncc3N(CCN3CCCC3=O)C(=O)[C@H]2C)c1C` [Example 11.21, (7R)-2-amino-8-[(4-methoxy-3,5-dimethylpyridin-2-yl)methyl]-7-methyl-5-[2-(2-oxopyrrolidin-1-yl)ethyl]-7,8-dihydropteridin-6(5H)-one] came in with an IC50 of 4610 nM. `COc1c(C)cnc(CN2CC(=O)N(Cc3ccccc3)c3c(Cl)nc(N)nc32)c1C` [Example 11.22, 2-amino-5-benzyl-4-chloro-8-[(4-methoxy-3,5-dimethylpyridin-2-yl)methyl]-7,8-dihydropteridin-6(5H)-one] showed a 50% inhibitory concentration (IC50) of 288 nM. Turning to `CCCN1C(=O)CN(Cc2ncc(C)c(OC)c2C)c2nc(N)nc(Cl)c21` [Example 11.23, 2-amino-4-chloro-8-[(4-methoxy-3,5-dimethylpyridin-2-yl)methyl]-5-propyl-7,8-dihydropteridin-6(5H)-one], the IC50 is 49.6 nM. With `COc1c(C)cnc(CN2CC(=O)N(CCc3ccccc3)c3c(Cl)nc(N)nc32)c1C` [Example 11.24, 2-amino-4-chloro-8-[(4-methoxy-3,5-dimethylpyridin-2-yl)methyl]-5-(2-phenylethyl)-7,8-dihydropteridin-6(5H)-one], the IC50 was 81.8 nM.

`COc1c(C)cnc(CN2c3nc(N)ncc3NC(=O)[C@H]2CC(=O)O)c1C` [Example 12, {(7R)-2-amino-8-[(4-methoxy-3,5-dimethylpyridin-2-yl)methyl]-6-oxo-5,6,7,8-tetrahydropteridin-7-yl}acetic acid] displayed an IC50 of 7340 nM.

As for `COc1c(C)cnc(CN2c3nc(N)ncc3NC(=O)[C@H]2CC(N)=O)c1C` [Example 13, 2-{(7R)-2-amino-8-[(4-methoxy-3,5-dimethylpyridin-2-yl)methyl]-6-oxo-5,6,7,8-tetrahydropteridin-7-yl}acetamide], the half-maximal inhibitory concentration (IC50) is 1750 nM. This IC50 is about 4.2-fold lower than that of the compound before.

Turning to `COc1c(C)cnc(CN2c3nc(N)ncc3NC(=O)[C@H]2CC(=O)NCCCN(C)C)c1C` [Example 14.1, 2-{(7R)-2-amino-8-[(4-methoxy-3,5-dimethylpyridin-2-yl)methyl]-6-oxo-5,6,7,8-tetrahydropteridin-7-yl}-N-[3-(dimethylamino)propyl]acetamide], the IC50 is 1630 nM. Compound `COc1c(C)cnc(CN2c3nc(N)ncc3NC(=O)[C@H]2CC(=O)NCCN(C)C)c1C` [Example 14.2, 2-{(7R)-2-amino-8-[(4-methoxy-3,5-dimethylpyridin-2-yl)methyl]-6-oxo-5,6,7,8-tetrahydropteridin-7-yl}-N-[2-(dimethylamino)ethyl]acetamide] returned a concentration for half-maximal inhibition (IC50) of 1620 nM. `COc1c(C)cnc(CN2CC(=O)Nc3c(C)nc(N)nc32)c1C` [Example 15, 2-amino-8-[(4-methoxy-3,5-dimethyl-pyridin-2-yl)methyl]-4-methyl-5,7-dihydropteridin-6-one] yielded an IC50 of 808 nM.
